Laboratory results taken from patent publication US20090239840A1, “AMINO SUBSTITUTED DIARYL[a,d]CYCLOHEPTENE ANALOGS AS [sequence] AGONISTS AND METHODS OF TREATMENT OF NEUROPSYCHIATRIC DISORDERS” (ACADIA PHARMACEUTICALS, INC., priority 2003, published 2009).
Where two headings read alike, the source gives them in different places.

What was measured:
muscarinic M1 receptor = target: T1, muscarinic M1 receptor (Homo sapiens, UniProt P11229); test: R-SAT functional screen, M1; assay type: cell-based; details: for Emax: read-out: M1 eff (efficacy)
T1 construct: expressed in transfected cells
T1 sequence (P11229 1-460): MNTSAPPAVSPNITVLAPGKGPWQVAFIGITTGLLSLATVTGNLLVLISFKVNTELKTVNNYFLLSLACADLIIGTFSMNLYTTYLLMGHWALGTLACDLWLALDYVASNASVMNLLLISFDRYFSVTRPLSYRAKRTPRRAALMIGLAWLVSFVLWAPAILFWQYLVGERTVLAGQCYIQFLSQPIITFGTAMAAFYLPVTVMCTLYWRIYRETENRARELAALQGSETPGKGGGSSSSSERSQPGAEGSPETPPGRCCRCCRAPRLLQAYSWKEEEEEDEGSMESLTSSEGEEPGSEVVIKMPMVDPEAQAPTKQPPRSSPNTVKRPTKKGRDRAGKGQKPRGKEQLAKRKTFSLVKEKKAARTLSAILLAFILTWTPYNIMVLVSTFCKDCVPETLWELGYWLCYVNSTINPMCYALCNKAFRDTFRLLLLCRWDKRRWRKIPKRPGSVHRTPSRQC
Method: (§1) Several compounds disclosed herein were evaluated for activity at muscarinic receptors using Receptor Selection and Amplification Technology (R-SAT) as described in U.S. Pat. No. 5,707,798, the disclosure of which is incorporated herein by reference in its entirety. The efficacy (eff) and potency (expressed as pEC50) of these compounds are presented in Table 1 at M1, M2, and M3 receptors.

muscarinic M2 receptor = target: T2, muscarinic M2 receptor (Homo sapiens, UniProt P08172); test: R-SAT functional screen, M2; assay type: cell-based; details: for Emax: read-out: M2 eff (efficacy)
T2 construct: expressed in transfected cells
T2 sequence (P08172 1-466): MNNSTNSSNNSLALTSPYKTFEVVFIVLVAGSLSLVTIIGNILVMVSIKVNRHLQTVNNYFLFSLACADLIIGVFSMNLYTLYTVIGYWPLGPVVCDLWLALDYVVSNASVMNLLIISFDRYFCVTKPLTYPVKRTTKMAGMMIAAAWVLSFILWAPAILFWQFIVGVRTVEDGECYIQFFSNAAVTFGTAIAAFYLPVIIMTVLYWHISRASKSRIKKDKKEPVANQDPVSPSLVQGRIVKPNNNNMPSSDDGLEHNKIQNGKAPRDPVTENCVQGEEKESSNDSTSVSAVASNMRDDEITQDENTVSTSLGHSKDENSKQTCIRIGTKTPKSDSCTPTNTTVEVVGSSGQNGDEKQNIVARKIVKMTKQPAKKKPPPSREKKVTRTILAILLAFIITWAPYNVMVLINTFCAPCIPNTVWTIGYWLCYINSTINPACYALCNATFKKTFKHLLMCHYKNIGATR
Method: as §1

[1] = system: hyperactivity induced by MK-801; test: MK-801 induced hyperactivity mouse model; assay type: in vivo; details: mice, salts of the compounds
Method: (§2) Five of the compounds listed in Table 2 were tested in an in vivo assay predictive of antipsychotic activity. Salts of these compounds where administered to mice having hyperactivity induced by amphetamine or MK-801 administration. The compounds were administered both subcutaneously (sc) and orally (po).

novel object recognition = test: Novel object recognition (NOR) assay; assay type: in vivo; details: mice, dose approx. ID75 in MK-801 hyperactivity assay
Method: Salts of the compounds were administered to mice at one hour post-training (a time-point at which animals normally behaviorally discriminate between novel and familiar objects) and two hours post-training (a time-point at which these animals normally no longer discriminate between objects). Doses were selected to correspond to the approximate ID75 value in the MK-801 hyperactivity assay.

[2] = system: hyperactivity induced by amphetamine; test: Amphetamine induced hyperactivity mouse model; assay type: in vivo; details: mice, salts of the compounds
Method: as §2

[3] = R-SAT, read-out: M2 pEC50 (converted)
[4] = R-SAT, read-out: M1 pEC50 (converted)

Structure (SMILES)	Emax (muscarinic M1 receptor; R-SAT) [%]	Emax (muscarinic M2 receptor; R-SAT) [%]	EC50 (muscarinic M2 receptor; [3]) [nM]	EC50 (muscarinic M1 receptor; [4]) [nM]	other results
CN1CCN(C2=Nc3cc(Cl)ccc3Oc3ccccc32)CC1 [8-Chloro-11-(4-methyl-piperazin-1-yl)-dibenzo[b,f][1,4]oxazepine]	13	46	1580	–	–
CCCCCCCCCc1ccc(C2=Nc3cc(Cl)ccc3Nc3ccccc32)cc1 [8-Chloro-11-(4-nonylphenyl)-5H-dibenzo[b,e][1,4]diazepine]	1	8	–	–	–
Clc1ccc2c(c1)N=C(N1CCOCC1)c1ccccc1N2 [8-Chloro-11-(morpholin-4-yl)-5H-dibenzo[b,e][1,4]diazepine]	11	6	–	–	–
Clc1ccc2c(c1)N=C(N1CCNCC1)c1ccccc1O2 [8-Chloro-11-(piperazin-1-yl)-dibenzo[b,f][1,4]oxazepine]	52	58	1000	100	–
Clc1ccc2c(c1)N=C(N1CCNCC1)c1ccccc1S2 [8-Chloro-11-(piperazin-1-yl)-dibenzo[b,f][1,4]thiazepine]	11	52	1260	–	–
Clc1ccc2c(c1)N=C(N1CCCCC1)c1ccccc1N2 [8-Chloro-11-(piperidin-1-yl)-5H-dibenzo[b,e][1,4]diazepine]	47	9	–	1580	–
Clc1ccc2c(c1)N=C(C1CCNCC1)c1ccccc1N2 [8-Chloro-11-(piperidin-4-yl)-5H-dibenzo[b,e][1,4]diazepine]	57	31	2000	631	–
Clc1ccc2c(c1)N=C(c1ccncc1)c1ccccc1N2 [8-Chloro-11-(pyridin-4-yl)-5H-dibenzo[b,e][1,4]diazepine]	6	6	–	–	–
Clc1ccc2c(c1)N=C(N1CCCNCC1)c1ccccc1N2 [8-Chloro-11-[1,4]diazepam-1-yl-5H-dibenzo[b,e][1,4]diazepine]	–	–	–	–	EC50 (muscarinic M1 receptor): 100 nM; Emax (muscarinic M1 receptor): 37%; EC50 (muscarinic M2 receptor): 631 nM; Emax (muscarinic M2 receptor): 82%
Fc1ccc2c(c1)N=C(N1CCNCC1)c1ccccc1N2 [8-Fluoro-11-(piperazin-1-yl)-5H-dibenzo[b,e][1,4]diazepine]	32	95	2000	200	–
Fc1ccc2c(c1)N=C(N1CCCNCC1)c1ccccc1N2 [8-Fluoro-11-[1,4]diazepam-1-yl-5H-dibenzo[b,e][1,4]diazepine]	–	–	–	–	EC50 (muscarinic M1 receptor): 200 nM; Emax (muscarinic M1 receptor): 25%; EC50 (muscarinic M2 receptor): 251 nM; Emax (muscarinic M2 receptor): 67%
Ic1ccc2c(c1)N=C(N1CCNCC1)c1ccccc1N2 [8-Iodo-11-(piperazin-1-yl)-5H-dibenzo[b,e][1,4]diazepine]	75	187	1000	63.1	–
Cc1ccc2c(c1)N=C(N1CCNCC1)c1ccccc1N2 [8-Methyl-11-(piperazin-1-yl)-5H-dibenzo[b,e][1,4]diazepine]	49	98	1000	158	–
c1ccc2c(c1)Sc1cc3c(cc1N=C2N1CCNCC1)OCCO3 [11-(piperazin-1-yl)-2,3-dihydro-1,4-benzodioxino[6,7-b][1,4]benzothiazepin]	6	28	–	–	–
N#Cc1ccc2c(c1)N=C(N1CCNCC1)c1ccccc1N2 [11-(piperazin-1-yl)-5H-dibenzo[b,e][1,4]diazepine-8-carbonitrile]	49	106	1000	251	–
c1ccc2c(c1)N=C(N1CCNCC1)c1ccccc1N2 [11-(piperazin-1-yl)-5H-dibenzo[b,e][1,4]diazepine]	38	70	2510	794	–
FC(F)(F)c1ccc2c(c1)N=C(N1CCNCC1)c1ccccc1N2 [11-(piperazin-1-yl)-8-trifluoromethyl-5H-dibenzo[b,e][1,4]diazepine]	53	131	3160	316	–
c1ccc2c(c1)N=C(N1CCNCC1)c1ccccc1S2 [11-(piperazin-1-yl)-dibenzo[b,f][1,4]thiazepin]	4	41	316	–	–
c1ccc2c(c1)N=C(N1CCCNCC1)c1ccccc1N2 [11-[1,4]Diazepam-1-yl-5H-dibenzo[b,e][1,4]diazepine]	–	–	–	–	Emax (muscarinic M1 receptor): 18%; Emax (muscarinic M2 receptor): 25%
Clc1ccc2c(c1)N=C(NC[C@H]1CCCN1)c1ccccc1N2 [(8-Chloro-5H-dibenzo[b,e][1,4]diazepin-11-yl)-(R)-1-pyrrolidin-2-yl-methyl-amine]	4	5	–	–	–
Clc1ccc2c(c1)N=C(NC[C@@H]1CCCN1)c1ccccc1N2 [(8-Chloro-5H-dibenzo[b,e][1,4]diazepin-11-yl)-(S)-1-pyrrolidin-2-yl-methyl-amine]	77	23	–	501	–
Clc1ccc2c(c1)N=C(NC1CCNC1)c1ccccc1N2 (stereo not drawn) [(8-Chloro-5H-dibenzo[b,e][1,4]diazepin-11-yl)-pyrrolidin-3-yl-amine]	10	18	–	–	–
CN1CCN(C2=Nc3cc(Cl)ccc3Nc3ccccc32)CC1 [Clozapine, clozapine, reference compound]	–	–	–	–	MK-801 model (ID50 mg/kg po) ([1]; po): 0.6 mg/kg; MK-801 model (ID50 mg/kg sc) ([1]; sc): 0.5 mg/kg; NOR - 60 minutes post training (novel object recognition): not retained; NOR - 120 minutes post training (novel object recognition): not retained; NOR - 60 minutes post training (novel object recognition; listed as clozapine): abolished novel object recognition; NOR - 120 minutes post training (novel object recognition; listed as clozapine): cognitive impairing effects; Amphetamine model (ID50 mg/kg po) ([2]; po): 10 mg/kg; Amphetamine model (ID50 mg/kg sc) ([2]; sc): 1.4 mg/kg
CN(C)CCNC1=Nc2ccccc2Nc2ccccc21 [N′-(5H-Dibenzo[b,e][1,4]diazepine-11-yl)-N,N-dimethyl-ethane-12-diamine]	10	20	–	–	–
CCN(CC)CCNC1=Nc2cc(Cl)ccc2Nc2ccccc21 [N′-(8-Chloro-5H-dibenzo[b,e][1,4]diazepine-11-yl)-N,N-diethyl-ethane-1,2-diamine]	6	9	–	–	–
CN(C)CCNC1=Nc2cc(Cl)ccc2Nc2ccccc21 [N′-(8-Chloro-5H-dibenzo[b,e][1,4]diazepine-11-yl)-N,N-dimethyl-ethane-1,2-diamine]	4	11	–	–	–
CNCCNC1=Nc2cc(Cl)ccc2Nc2ccccc21 [N′-(8-Chloro-5H-dibenzo[b,e][1,4]diazepine-11-yl)-N-methyl-ethane-12-diamine]	5	8	–	–	–
CN(C)CCNC1=Nc2cc(F)ccc2Nc2ccccc21 [N′-(8-Fluoro-5H-dibenzo[b,e][1,4]diazepine-11-yl)-N,N-dimethyl-ethane-1,2-diamine]	7	21	–	–	–
